In the supplement of paper PMC5412046:

Legend:
[1] = system: SB.mhdgc-1; assay: AC50 for growth inhibition (viability) (log10 M); higher = less potent; conditions: SB.mhdgc-1 (hereditary c.1380delA CDH1 gastric cancer)
Procedure, shortened: (§1)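 Dosing used a pintool to add 23 nL compound in DMSO to 1536 wells, each with 500 hereditary or sporadic patient-derived gastric cancer cells, across 11 threefold dilutions starting at a final 46 μM. Viability after 48 h was measured by CellTiter-Glo luminescence on a ViewLux. The log half-maximal activity concentration derives from a four-parameter fit of that viability normalised to DMSO, limited to high-quality curve classes.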

[2] = system: SB.msgc-1; assay: as above; conditions: SB.msgc-1 (sporadic gastric cancer)
Procedure, shortened: as §1

Row | SMILES | AC50 for growth inhibition (log10 M) [1] | AC50 for growth inhibition (log10 M) [2]
1 | Cc1cn2c(-c3cn[nH]c3)cnc2c(Nc2ccc(C(=O)N3CCNCC3)cc2F)n1 | -4.98 | -4.83
2 | CCc1ccc(OCc2ccccc2C(=O)Nc2ccc3nc(C)cc(N)c3c2)cc1 [JTC-801] | -5.43 | -4.98
3 | CC1=C(C)C2=C(S1)[N]3C(=NN=C3[C@H](CC(=O)OC(C)(C)C)/N=C2/C4=CC=C(Cl)C=C4)C [JQ1] | -5.28 | -5.38
4 | NCC(=O)Nc1ccc(-n2nc(C(F)(F)F)cc2-c2ccc3c(ccc4ccccc43)c2)cc1 | -4.68 | -4.63
5 | O=C(O)c1ccc2cc(-c3ccc(O)c(C45CC6CC(CC(C6)C4)C5)c3)ccc2c1 [AHPN] | -6.48 | -4.83
6 | N#C/N=C(\NCCCCCCOc1ccc(Cl)cc1)Nc1ccncc1 [GMX-1778] | -8.08 | -6.88
7 | Cn1cc(-c2ccc3nnc(Sc4ccc5ncccc5c4)n3n2)cn1 [SGX-523] | -5.13 | -4.78
8 | CN(CC(=O)N(Cc1ccc(C2CCCCC2)cc1)c1ccc(C(=O)O)c(O)c1)[S+](=O)([O-])c1c(F)c(F)c(F)c(F)c1F [BP-1-102] | -4.58 | -4.73
9 | Cn1cc(-c2cnn3c(N)c(Br)c([C@H]4CCCNC4)nc23)cn1 | -5.88 | -6.83
10 | CC/1=C(\O)C(=O)\C=C2/C1=C/C=C3\[C@@]2(C)CC[C@@]4(C)[C@@H]5C[C@@](C)(CC[C@]5(C)CC[C@]34C)C(O)=O [Tripterin] | -5.58 | -5.78
11 | S=C(NCc1ccc2c(c1)OCO2)N1CCN(c2ncnc3c2oc2ccccc23)CC1 [Amuvatinib] | -4.92 | -5.57
12 | CCOC(=O)[C@@H](N)Cc1ccc(-c2cc(O[C@H](c3ccc(Cl)cc3-n3ccc(C)n3)C(F)(F)F)nc(N)n2)cc1.O=C(O)CNC(=O)c1ccccc1 [Telotristat etiprate] | -4.78 | -5.03
13 | CCC(CCCC)COC(=O)C(\C#N)=C(\c1ccccc1)c2ccccc2 (configuration not stated) [Octocrylene] | -4.88 | -4.88
14 | Nc1nc(Cl)nc2c1ncn2[C@H]1C[C@H](O)[C@@H](CO)O1 [Cladribine] | -6.58 | -5.83
15 | COc1cc([C@@H]2c3cc4c(cc3[C@H](O)[C@H]3COC(=O)[C@@H]23)OCO4)cc(OC)c1OC [Picropodophyllin] | -6.48 | -6.73
16 | CNC1CCC(N(Cc2cccc(-c3ccncc3)c2)C(=O)c2sc3ccccc3c2Cl)CC1 (configuration not stated) [SAG] | -4.93 | -4.88

Row | SMILES | AC50 for growth inhibition (log10 M) [1] | AC50 for growth inhibition (log10 M) [2]
17 | CC[C@@H]1[C@@H](C)O[C@@](O)([C@@H](C)[C@H](O)[C@H](C)[C@H]2OC(=O)/C=C/C=C/[C@H](C)[C@@H]([C@@H](C)[C@@H](O)[C@H](C)[C@@]3(O)C[C@@H](O[C@H]4C[C@H](O)[C@H](O)[C@H](C)O4)[C@H](CC)[C@@H](C)O3)OC(=O)/C=C/C=C/[C@@H]2C)C[C@H]1O[C@H]1C[C@H](O)[C@H](O)[C@H](C)O1 [Azalomycin-B] | -6.38 | -6.33
18 | CC(C)(C)c1nc(-c2cccc(N[S+](=O)([O-])c3c(F)cccc3F)c2F)c(-c2ccnc(N)n2)s1 [Dabrafenib] | -4.73 | -4.88
19 | NC(=O)Nc1sc(-c2ccc(F)cc2)cc1C(N)=O [TPCA-1] | -5.93 | -5.48
20 | C[C@H]1[C@@H](CC(C[C@H]2O[C@@H]3O[C@]4(C)CC[C@H]5[C@H](C)CC[C@@H]([C@H]2C)[C@@]35OO4)C[S+](=O)([O-])c2ccc(COC(=O)N(C)C)cc2)O[C@@H]2O[C@]3(C)CC[C@H]4[C@H](C)CC[C@@H]1[C@@]24OO3 [ASR-isobudimer-SO2Ph-4-CH2OC(O)NMe2] | -6.93 | -6.48
21 | CC[C@H](C)[N]1C=C(C)C2=C1C=C(C=C2C(=O)NC\C3=C(C)\C=C(\C)NC3=O)C4=CC=C(N=C4)N5CCNCC5 [GSK126] | -5.03 | -4.98
22 | CN(C)CCN1C(=O)c2cccc3cc(N)cc(c23)C1=O [Amonafide] | -5.68 | -5.08
23 | FC1=C(C=C(C\C2=N\NC(=O)C3=C2C=CC=C3)C=C1)C(=O)N4CCN(CC4)C(=O)C5CC5 [Olaparib] | -5.48 | -4.78
24 | COC/1=C/[C@@H]2[C@@H]3CC4=C(C(=C(OC)C=C4)O)[C@]2(CCN3C)CC1=O [Sinomenine] | -6.33 | -6.03
25 | CCOc1cc(N2CCC(O)CC2)ccc1Nc1ncc2c(n1)N(C)c1ccccc1C(=O)N2C [XMD8-92] | -5.98 | -5.18
26 | Cc1c[nH]c(/C=C2\C(=O)Nc3ccccc32)c1CCC(=O)O [SU-5402] | -4.68 | -4.73
27 | COc1cc2ncn(-c3cc(OCc4ccccc4C(F)(F)F)c(C(N)=O)s3)c2cc1OC | -5.43 | -5.63
28 | COc1cc2nc(-c3ccc(N4CCN(C)CC4)cc3)nc(NCCN3CCOCC3)c2cc1OC | -5.28 | -6.78
29 | Cl.Nc1ccn([C@@H]2O[C@H](CO)[C@@H](O)C2(F)F)c(=O)n1 [Gemcitabine] | -7.23 | -7.53
30 | COC1=C2C[C@@H](C)C[C@H](OC)[C@H](O)[C@@H](C)/C=C(\C)[C@H](OC(N)=O)[C@@H](OC)/C=C/C=C(\C)C(=O)NC(=CC1=O)C2=O [Geldanamycin] | -6.58 | -6.43
31 | C[C@H]1C[C@@H]2[C@H](CC[C@@]3(C)[C@H]2CC[C@]3(OC(C)=O)C(C)=O)[C@@]\4(C)CCC(=O)\C=C14 [Medroxyprogesterone acetate] | -5.23 | -4.83
